PMC4551390 (Leukemia, 2015)

Columns and labels:
tumor FDG uptake (SUV) = test: FDG PET/CT tumor metabolic response; type: in vivo, human; conditions: Baseline vs Cycle 1 Day 22; 29 subjects scanned, 4 not evaluable
bcl-2 = test: Western blot protein expression in patient samples; type: in vivo, human; conditions: 2 and 4 hours of treatment vs pretreatment
T-cells = conditions: pre-clinical; cited from earlier work
[1] = Plasma pharmacokinetics after 2-hr IV infusion; conditions: for AUC / Cmax / half-life: human, plasma, intravenous; for AUC / Cmax: Mean

Compound: CCc1cnn2c(NCc3ccc[n+]([O-])c3)cc(N3CCCC[C@H]3CCO)nc12 [Dinaciclib]
- PET non-responders (tumor FDG uptake (SUV)): 10
- PET responders (30% or more decrease in SUV) (tumor FDG uptake (SUV)): 15
- BCL2 protein level (bcl-2): no significant change
- cytotoxicity to T-cells (T-cells): not cytotoxic
- CL, Mean ([1]; Day 1, 5 mg/m^2): 26.2 L/hr/m2
- Vd, Mean ([1]; Day 1, 5 mg/m^2): 92.8 L/m2
- CL, Mean ([1]; Day 1, 7 mg/m^2): 17.3 L/hr/m2
- Vd, Mean ([1]; Day 1, 7 mg/m^2): 66.2 L/m2
- CL, Mean ([1]; Day 1, 10 mg/m^2): 19.9 L/hr/m2
- Vd, Mean ([1]; Day 1, 10 mg/m^2): 81.8 L/m2
- CL, Mean ([1]; Day 1, 14 mg/m^2): 18.1 L/hr/m2
- Vd, Mean ([1]; Day 1, 14 mg/m^2): 74.4 L/m2
- CL, Mean ([1]; Day 1, 17 mg/m^2): 13.2 L/hr/m2
- Vd, Mean ([1]; Day 1, 17 mg/m^2): 55.9 L/m2
- CL, Mean ([1]; Day 15, 5 mg/m^2): 16.1 L/hr/m2
- Vd, Mean ([1]; Day 15, 5 mg/m^2): 60.3 L/m2
- CL, Mean ([1]; Day 15, 7 mg/m^2): 23.8 L/hr/m2
- Vd, Mean ([1]; Day 15, 7 mg/m^2): 79.5 L/m2
- CL, Mean ([1]; Day 15, 10 mg/m^2): 16.8 L/hr/m2
- Vd, Mean ([1]; Day 15, 10 mg/m^2): 68.4 L/m2
- CL, Mean ([1]; Day 15, 14 mg/m^2): 17 L/hr/m2
- Vd, Mean ([1]; Day 15, 14 mg/m^2): 71.4 L/m2
- CL, Mean ([1]; Day 15, 17 mg/m^2): 13.8 L/hr/m2
- Vd, Mean ([1]; Day 15, 17 mg/m^2): 58.9 L/m2
- increases in exposure (Cmax and AUC) ([1]; at 17 mg/m^2): greater than dose-proportional
- AUC ([1]; 5 mg/m2, AUC(I), Day 1, 5 mg/m^2): 191 ng·h/mL
- AUC ([1]; 5 mg/m2, AUC(I), Day 15, 5 mg/m^2): 310 ng·h/mL
- Cmax ([1]; 5 mg/m2, Cmax, Day 1, 5 mg/m^2): 95.4 ng/mL
- Cmax ([1]; 5 mg/m2, Cmax, Day 15, 5 mg/m^2): 150 ng/mL
- half-life ([1]; 5 mg/m2, T1/2, Mean, Day 1, 5 mg/m^2): 147 min
- half-life ([1]; 5 mg/m2, T1/2, Mean, Day 15, 5 mg/m^2): 150 min
- AUC ([1]; 7 mg/m2, AUC(I), Day 1, 7 mg/m^2): 403 ng·h/mL
- AUC ([1]; 7 mg/m2, AUC(I), Day 15, 7 mg/m^2): 294 ng·h/mL
- Cmax ([1]; 7 mg/m2, Cmax, Day 15, 7 mg/m^2): 157 ng/mL
- half-life ([1]; 7 mg/m2, T1/2, Mean, Day 15, 7 mg/m^2): 139 min
- AUC ([1]; 10 mg/m2, AUC(I), Day 1, 10 mg/m^2): 501 ng·h/mL
- AUC ([1]; 10 mg/m2, AUC(I), Day 15, 10 mg/m^2): 592 ng·h/mL
- Cmax ([1]; 10 mg/m2, Cmax, Day 1, 10 mg/m^2): 277 ng/mL
- Cmax ([1]; 10 mg/m2, Cmax, Day 15, 10 mg/m^2): 299 ng/mL
- half-life ([1]; 10 mg/m2, T1/2, Mean, Day 1, 10 mg/m^2): 171 min
- half-life ([1]; 10 mg/m2, T1/2, Mean, Day 15, 10 mg/m^2): 169 min
- AUC ([1]; 14 mg/m2, AUC(I), Day 1, 14 mg/m^2): 775 ng·h/mL
- AUC ([1]; 14 mg/m2, AUC(I), Day 15, 14 mg/m^2): 827 ng·h/mL
- Cmax ([1]; 14 mg/m2, Cmax, Day 1, 14 mg/m^2): 404 ng/mL
- Cmax ([1]; 14 mg/m2, Cmax, Day 15, 14 mg/m^2): 428 ng/mL
- half-life ([1]; 14 mg/m2, T1/2, Mean, Day 1, 14 mg/m^2): 171 min
- AUC ([1]; 17 mg/m2, AUC(I), Day 1, 17 mg/m^2): 1290 ng·h/mL
- AUC ([1]; 17 mg/m2, AUC(I), Day 15, 17 mg/m^2): 1260 ng·h/mL
- Cmax ([1]; 17 mg/m2, Cmax, Day 1, 17 mg/m^2): 624 ng/mL
- Cmax ([1]; 17 mg/m2, Cmax, Day 15, 17 mg/m^2): 634 ng/mL
- half-life ([1]; 17 mg/m2, T1/2, Mean, Day 15, 17 mg/m^2): 177 min
- accumulation in plasma ([1]; weekly 2-hour IV infusion): did not accumulate
